In patent USRE37886E1, “1-(1,2-Disubstituted piperidinyl)-4-substituted piperazine derivatives” (Janssen Pharmaceuticals, N.V., priority 1995, dated 2002):

Experiments:
[1] = tested on: substance-P induced relaxation of the pig coronary arteries; assay: Antagonism of substance-P induced relaxation of the pig coronary arteries; format: cell-based; details: concentration at which 50% of the response to 10^−9 M substance P was inhibited, 30 minutes incubation, prostaglandin F2a precontracted segments
Text: (§1) The compounds of the present invention are potent inhibitors of neurokinin-mediated effects, in particular those mediated via the NK1 receptor, and may therefore be described as tachykinin antagonists, especially as substance P antagonists, as indicated in vitro by the antagonism of substance P induced relaxation of pig coronary arteries which is described hereinafter. The binding affinity of the present compounds for the human, guinea-pig and gerbil neurokinin receptors may be determined in vitro in a receptor binding test using ^3H-substance-P as radioligand. The subject compounds also show substance-P antagonistic activity in vivo as may be evidenced by, for instance, the antagonism of substance P-induced plasma extravasation in guinea-pigs, or the antagonism of drug-induced emesis in ferrets (Watson et al., Br. J. Pharmacol. 115, 84-94, 1995).
Antagonism of substance-P induced relaxation of the pig coronary arteries
Segments of coronary artieries taken from pigs (killed by injection of an overdose of sodium pentobarbital) were inverted and mounted for recordign of isometric tension in organ baths (volume 20 ml) with the endothelium at the outside. The preparations were bathed in Krebs-Henseleit solution. The solution was kept at 37° C. and gassed with a mixture of O2/CO2 (95/5). After stabilisation of the preparations, prostaglandin F2a (10^−5 M) was administered to induce a contraction. This was repeated until contractivle responses became stable. Then prostaglandin F2a was again administered and substance P(3×10^−10 M and 10^−9 M cumulatively) was added. Substance P induced endothelium dependent relaxations. After washing away the agonists, a known concentratin of a compound of formula (I) was added. After an incubation period of 30 minutes, prostaglandin F2a ([…]) and the same concentrations of sbustance P as described above were again administered in the presence of the compound to be tested. Relaxations caused by substance P were expressed as relaxations under control conditions, and percent inhibition of the response to […] substance P was taken as a measure of the antagonistic activity of the compound to be tested. Table 6 lists the IC50 values (concentration at which 50% of the response to […] substance P was inhibited by the test compound) for the tested compounds.

[2] = tested on: substance P induced plasma extravasation; assay: Antagonism of substance P induced plasma extravasation in guinea-pigs; format: in vivo; details: lowest active dose, female guinea-pigs; for LAD nose: compound 1 hour prior to substance P (2 mg/kg, femoral artery), blue colouring of nose 10 minutes after challenge; for LAD conjunctiva / LAD forepaws / LAD trachea / LAD urinary bladder: compound 1 hour prior to substance P; for LAD conjunctiva: blue colouring of conjunctiva 10 minutes after challenge; for LAD forepaws: blue colouring of forepaws 10 minutes after challenge; for LAD trachea: blue colouring of trachea 30 minutes after challenge; for LAD urinary bladder: blue colouring of urinary bladder 30 minutes after challenge
Text: as §1
Antagonism of substance P induced plasma extravasation in guinea-pigs
Plasma extravasation was induced by injection of substance P (2 mg/kg) in the femoral artery of female guinea-pigs. Evans Blue dye (30 mg/kg) was injected simultaneously. The test compound or solvent was administered 1 hour prior to substance P injection. 10 minutes after challenge, the aminals were checked for blue colouring (a direct measure for plasma extravasation) of the nose, the forepaws, and the conjectiva. 30 minutes after challenge, the animals were sacrificed by CO2 gas inhalation and checked for blue colouring of the trachea and the urinary bladder. […]

IC50 ([1]; Sus scrofa, 0.5 h) [nM] | SMILES | IC50 [1] [nM] | LAD nose [2] [mg/kg] | LAD conjunctiva [2] [mg/kg] | LAD forepaws [2] [mg/kg] | LAD trachea [2] [mg/kg] | LAD urinary bladder [2] [mg/kg]
 | Cc1cccc(C)c1NC(=O)CN1CCN([C@@H]2CCN(C(=O)c3cc(C(F)(F)F)cc(C(F)(F)F)c3)[C@@H](Cc3cc(F)cc(F)c3)C2)CC1 (racemic) [Compound 133, (±)-trans-4-[1-[3,5-bis(trifluoromethyl)benzoyl]-2-[(3,5-difluorophenyl)methyl]-4-piperdinyl]-N-(2,6-dimethylphenyl)-1-piperazineacetamide] | 0.62 | 2.50 | 2.50 | 2.50 | 10.0 | 10.0
 | Cc1cccc(C)c1NC(=O)CN1CCN(C2CCN(C(=O)c3cc(C(F)(F)F)cc(C(F)(F)F)c3)C(Cc3ccc(F)c(F)c3)C2)CC1 (racemic) [Compound 134] | 0.04 | 10.0 | 10.0 | 10.0 | 10.0 | 10.0
 | Cc1cccc(C)c1NC(=O)CN1CCN(C2CCN(C(=O)c3cc(C(F)(F)F)cc(C(F)(F)F)c3)C(Cc3ccc(F)c(F)c3)C2)CC1 (racemic) [Compound 135] | 0.01 | 0.63 | 0.63 | 0.63 | 2.50 | >40
 | Cc1cccc(C)c1NC(=O)CN1CCN(C2CCN(C(=O)c3cc(C(F)(F)F)cc(C(F)(F)F)c3)C(Cc3ccc(Cl)c(Cl)c3)C2)CC1 (racemic) [Compound 138] | 0.16 | 2.50 | 2.50 | 2.50 | 10.0 | >40
0.13 | Cc1cccc(C)c1NC(=O)CN1CCN([C@@H]2CCN(C(=O)c3cc(C(F)(F)F)cc(C(F)(F)F)c3)[C@@H](Cc3ccc(Cl)c(Cl)c3)C2)CC1 (racemic) [Compound 139, (±)-trans-4-[1-[3,5-bis(trifluoromethyl)benzoyl]-2-[(3,4-dichlorophenyl)methyl]-4-piperidinyl]-N-(2,6-dimethylphenyl)-1-piperazineacetamide] |  | 2.50 | 2.50 | 2.50 | 2.50 | 2.50
 | Cc1cccc(C)c1NC(=O)CN1CCN([C@@H]2CCN(C(=O)c3cc(C(F)(F)F)cc(C(F)(F)F)c3)[C@@H](Cc3ccccc3)C2)CC1.O=C(O)C[C@H](O)C(=O)O (relative stereo) [Compound 95, (+)-(B)-trans-4-[1-[3,5-bis(trifluoromethyl)benzoyl]-2-(phenylmethyl)-4-piperidinyl]-N-(2,6-dimethylphenyl)-1-piperazine acetamide. (L)-malic acid (1:1)] | 0.1 | 0.31 | 0.31 | 0.31 | 0.63 | 2.50
 | Cc1cccc(C)c1NC(=O)CN1CCN([C@@H]2CCN(C(=O)c3cc(C(F)(F)F)cc(C(F)(F)F)c3)[C@@H](Cc3ccccc3)C2)CC1.O=C(O)/C=C/C(=O)O (relative stereo) [Compound 128, (B-trans)-4-[1-[3,5-bis(trifluoromethyl)benzoyl]-2-(phenylmethyl)-4-piperidinyl]-N-(2,6-dimethylphenyl)-1-piperazineacetamide (E)-2-butenedioate (1:1)] | 0.35 | 0.63 | 0.63 | 0.63 | >40 | 10.0
 | Cc1cccc(C)c1NC(=O)CN1CCN(C2CCN(C(=O)c3cc(C(F)(F)F)cc(C(F)(F)F)c3)C(Cc3ccccc3)C2)CC1 (single isomer, unassigned) [Compound 42] | 0.93 | 1.25 | 2.50 | 1.25 | 5.00 | 5.00
 | Cc1cccc(C)c1NC(=O)CN1CCN(C2CCN(C(=O)c3cc(C(F)(F)F)cc(C(F)(F)F)c3)C(Cc3ccc(C(F)(F)F)cc3)C2)CC1.O=C(O)/C=C/C(=O)O (single isomer, unassigned) [Compound 136] | 0.31 | 2.50 | 2.50 | 2.50 | 2.50 | 2.50
 | Cc1cccc(C)c1NC(=O)CN1CCN(C2CCN(C(=O)c3cc(C(F)(F)F)cc(C(F)(F)F)c3)C(Cc3ccc(C(F)(F)F)cc3)C2)CC1 (single isomer, unassigned) [Compound 137] | 0.23 | 2.50 | 2.50 | 2.50 | 2.50 | 2.50
 | O=C(c1cc(C(F)(F)F)cc(C(F)(F)F)c1)N1CCC(N2CCN(CCn3c(=O)[nH]c4ccccc43)CC2)CC1Cc1ccccc1 (stereo not drawn) [Compound 19] | 0.54 | 2.50 | 2.50 | 2.50 | 10.0 | >40
 | CCOCCn1c(N2CCN(C3CCN(C(=O)c4cc(C(F)(F)F)cc(C(F)(F)F)c4)C(Cc4ccccc4)C3)CC2)nc2ccccc21 (stereo not drawn) [Compound 22] | 0.37 | 2.50 | 2.50 | 2.50 | 10.0 | >40
 | Cc1ncc(Cn2c(N3CCN(C4CCN(C(=O)c5cc(C(F)(F)F)cc(C(F)(F)F)c5)C(Cc5ccccc5)C4)CC3)nc3ccccc32)o1 (stereo not drawn) [Compound 24] | 0.64 | 2.50 | 10.0 | 2.50 | 10.0 | >40
 | O=C(CN1CCN(C2CCN(C(=O)c3cc(C(F)(F)F)cc(C(F)(F)F)c3)C(Cc3ccccc3)C2)CC1)NC(c1ccccc1)c1ccccc1 (stereo not drawn) [Compound 33] | 0.6 | 2.50 | 2.50 | 10.0 | >40 | >40
 | Cc1ncc(Cn2c(N3CCCN(C4CCN(C(=O)c5cc(C(F)(F)F)cc(C(F)(F)F)c5)C(Cc5ccccc5)C4)CC3)nc3ccccc32)o1 (stereo not drawn) [Compound 34] | 0.35 | 2.50 | 2.50 | 10.0 | 10.0 | 10.0
 | COc1ccccc1NC(=O)CN1CCN(C2CCN(C(=O)c3cc(C(F)(F)F)cc(C(F)(F)F)c3)C(Cc3ccccc3)C2)CC1 (stereo not drawn) [Compound 38] | 0.86 | 10.0 | 10.0 | 10.0 | >40 | >40
 | O=C(CN1CCN(C2CCN(C(=O)c3cc(C(F)(F)F)cc(C(F)(F)F)c3)C(Cc3ccccc3)C2)CC1)NC1(c2ccccc2)CCCCC1 (stereo not drawn) [Compound 48] | 0.26 | 2.50 | 2.50 | 2.50 | 2.50 | 2.50
